Reference: patent US8143382B2, “Pyrazole disazo dye and ink containing the dye” (Mitsubishi Chemical Corporation, priority 2007, dated 2012)

How the values were obtained:
[1] = Absorption spectrum and colour of the n-decane solution of the dye; assay type: physicochemical; details: for Gram extinction coefficient: decane, at the absorption maximum wavelength; for Color of solution / Absorption maximum wavelength: n-decane solution; for Absorption maximum wavelength: wavelength range 350-800 nm
Description: (§1) The dye was added to n-decane, and this mixture was subjected to an ultrasonic treatment at 30° C. and ordinary pressure. When the dye completely dissolved, an additional amount of the dye was added so that the dye partly remained undissolved. The mixture thus treated was allowed to stand at room temperature (25° C.) for 12 hours and then subjected to centrifugal filtration with a 0.1-μm filter to obtain a saturated solution of the dye. This solution was diluted to an appropriate concentration and examined for absorption spectrum.
(§2) From values of absorption maximum wavelength in the wavelength range of 350-800 nm, gram extinction coefficient, and molar extinction coefficient which had been determined beforehand at an appropriate concentration and from the dilution ratio and the absorption spectrum of the diluted solution, the solubility (% by weight) and the product of the molar extinction coefficient at the absorption maximum wavelength and the molar concentration of the saturated solution were calculated.

[2] = Solubility of the dye in n-decane (saturated solution, 25° C., ordinary pressure); assay type: physicochemical; details: for Solubility compared with the comparative compound: from Table 1; for [Molar extinction coefficient at absorption maximum wavelength] × [molar concentration of saturated solution]: saturated solution at 25° C.; for Solubility (decane): saturated solution, 25° C., ordinary pressure, 0.1-μm filter
Description: as §1, §2

Gram extinction coefficient [1]	Color of solution [1]	Absorption maximum wavelength [1]	[Molar extinction coefficient at absorption maximum wavelength] × [molar concentration of saturated solution] [2]	Solubility (decane) [2]	SMILES	Solubility compared with the comparative compound [2]
69000 cm^2g^−1	yellow	415 nm	1400 cm⁻¹	3.1 wt %	CCc1nn(C(C)(C)C)c(O)c1N=Nc1ccc(N=Nc2ccccc2)cc1 [1-3]	higher solubility than the comparative compound
61000 cm^2g^−1	yellow	421 nm	13000 cm⁻¹	30 wt %	CCCCc1ccc(N=Nc2ccc(N=Nc3c(CCCC)nn(C(C)(C)C)c3O)cc2)cc1 [1-2]	higher solubility than the comparative compound
97000 cm^2g^−1	almost no	416 nm	10 cm⁻¹	0.014 wt %	Cc1nn(-c2ccccc2)c(O)c1N=Nc1ccc(N=Nc2ccccc2)cc1 [compound 1, reference compound]	–

SMILES	Gram extinction coefficient [1]	Color of solution [1]	Absorption maximum wavelength [1]	[Molar extinction coefficient at absorption maximum wavelength] × [molar concentration of saturated solution] [2]	Solubility (decane) [2]	Solubility compared with the comparative compound [2]
CCCCc1nn(C(C)(C)C)c(O)c1N=Nc1ccc(N=Nc2ccccc2)cc1 [1-1]	62000 cm^2g^−1	yellow	417 nm	1900 cm⁻¹	4.2 wt %	higher solubility than the comparative compound
